What follows are molecules tested on AA-induced platelet aggregation (assay: Inhibitory effect on AA-induced platelet aggregation in rats in vitro (washed platelets)). Details: 1*10^−4 M.
Assay type: cell-based, rat
Experimental: Several experimental groups were established, including a blank control group, an AA (arachidonic acid) model control group, and various test compounds. Each test compound had three concentration groups: 10^−3 M, 10^−4 M, and 10^−5 M. The data from the blank and model control group were shared among the different drug concentration groups as a control.
Male SD rats were anesthetized with 3% chloral hydrate (300 mg/kg) through intraperitoneal injection. After being fixed in a supine position, the skin of the neck was cut about 3 cm, bluntly separated with a hemostat, and the trachea was exposed after the common carotid artery was separated. The distal end of the common carotid artery was ligated with a fine thread, and the proximal end was clamped with an arterial clamp for vascular intubation. After the intubation was fixed, the artery clamp was opened, and the blood was placed into a blood collection tube containing 3.8% trisodium citrate so that the blood was mixed well with the 3.8% trisodium citrate in a volume ratio of 9:1.
The prepared anticoagulant blood was mixed well and centrifuged for 10 minutes at 500 rpm, then the upper layer of plasma was aspirated to obtain platelet-rich plasma (PRP), and the PRP was centrifuged again for 5 minutes at 3,000 rpm. The supernatant was discarded, and the platelet precipitate was obtained, which was washed once with Ca^2+-free HEPES-Tyrode's buffer, then centrifuged at 3,000 rpm for 5 minutes. The supernatant was discarded, and the platelets were resuspended with Ca^2+-free HEPES-Tyrode's buffer to obtain the washed platelets.
First, 300 μL of Ca^2+-containing HEPES-Tyrode's solution was taken into the test cup, put into the test wells, and calibrated by pressing the “PPP” key. Subsequently, 240 μL of the washed platelets were added to the test cup, then added with 30 μL of different concentrations of drug solution, incubated for 10 minutes at 37° C. in a preheated bath, and then put into the test wells. 3 μL of 100× CaCl2 solution (final concentration of 0.2 g/L) and 30 μL of inducer (final concentration of AA of 800 μM) were added to the test wells, and then the “Start” key was pressed immediately. The maximum aggregation rate was recorded every 60 s. The measurement was repeated three times for each concentration for 10 minutes, and the aggregation curve was plotted.
The platelet aggregation inhibition rate was calculated with the following formula:
Inhibition rate (%)=(maximum aggregation rate in the model control group−maximum aggregation rate in the administration group)/maximum aggregation rate in the model control group×100%
All data were expressed as mean±standard deviation (mean±SD). SPSS 22.0 software was used for statistical analysis of the data. Intergroup data were analyzed using one-way ANOVA, with P<0.05 considered as statistically significant and P<0.01 considered as highly significant.

Row | SMILES | significant inhibition of AA-induced platelet aggregation
1 | Cc1cc([C@@H]2C[C@H]2C(=O)O)ccc1Cn1cnc(Cl)c1 [Compound 4, (1R,2R)-2-(4-((4-Chloro-1H-imidazol-1-yl)methyl)-3-methylphenyl)cyclopropane-1-carboxylic acid] | can significantly inhibit
2 | Cc1cc(Cn2cnc(F)c2)ccc1[C@@H]1C[C@H]1C(=O)O [Compound 5, (1R,2R)-2-(4-((4-Fluoro-1H-imidazol-1-yl)methyl)-2-methylphenyl)cyclopropane-1-carboxylic acid] | can significantly inhibit
3 | Cc1cc(Cn2ccnc2)ccc1[C@@H]1C[C@H]1C(=O)O [Compound 7, (1R,2R)-2-(4-((1H-Imidazol-1-yl)methyl)-2-methylphenyl)cyclopropane-1-carboxylic acid] | can significantly inhibit
4 | Cc1cc([C@@H]2C[C@H]2C(=O)O)ccc1Cn1cnc(F)c1 [Compound 8, (1R,2R)-2-(4-((4-Fluoro-1H-imidazol-1-yl)methyl)-3-methylphenyl)cyclopropane-1-carboxylic acid] | can significantly inhibit
5 | O=C(O)[C@@H]1C[C@H]1c1ccc(Cn2cnc(Cl)c2)c(F)c1 [Compound 14, (1R,2R)-2-(4-((4-Chloro-1H-imidazol-1-yl)methyl)-3-fluorophenyl)cyclopropane-1-carboxylic acid] | can significantly inhibit
6 | O=C(O)[C@H]1C[C@@H]1c1ccc(Cn2ccnc2)cc1 [Compound 20, (1S,2S)-2-(4-((1H-Imidazol-1-yl)methyl)phenyl)cyclopropane-1-carboxylic acid] | can significantly inhibit
7 | Cc1cc([C@H]2C[C@@H]2C(=O)O)ccc1Cn1cnc(Cl)c1 [Compound 24, (1S,2S)-2-(4-((4-Chloro-1H-imidazol-1-yl)methyl)-3-methylphenyl)cyclopropane-1-carboxylic acid] | can significantly inhibit
8 | Cc1cc(Cn2cnc(F)c2)ccc1[C@H]1C[C@@H]1C(=O)O [Compound 25, (1S,2S)-2-(4-((4-Fluoro-1H-imidazol-1-yl)methyl)-2-methylphenyl)cyclopropane-1-carboxylic acid] | can significantly inhibit
9 | Cc1cc(Cn2ccnc2)ccc1[C@H]1C[C@@H]1C(=O)O [Compound 27, (1S,2S)-2-(4-((1H-Imidazol-1-yl)methyl)-2-methylphenyl)cyclopropane-1-carboxylic acid] | can significantly inhibit
10 | Cc1cc([C@H]2C[C@@H]2C(=O)O)ccc1Cn1cnc(F)c1 [Compound 28, (1S,2S)-2-(4-((4-Fluoro-1H-imidazol-1-yl)methyl)-3-methylphenyl)cyclopropane-1-carboxylic acid] | can significantly inhibit
11 | O=C(O)[C@H]1C[C@@H]1c1ccc(Cn2cnc(Cl)c2)c(Cl)c1 [Compound 31, (1S,2S)-2-(3-Chloro-4-((4-chloro-1H-imidazol-1-yl)methyl)phenyl)cyclopropane-1-carboxylic acid] | can significantly inhibit
12 | O=C(O)[C@H]1C[C@@H]1c1ccc(Cn2cnc(Cl)c2)cc1F [Compound 33, (1S,2S)-2-(4-((4-Chloro-1H-imidazol-1-yl)methyl)-2-fluorophenyl)cyclopropane-1-carboxylic acid] | can significantly inhibit
13 | O=C(O)[C@H]1C[C@@H]1c1ccc(Cn2cnc(Cl)c2)c(F)c1 [Compound 34, (1S,2S)-2-(4-((4-Chloro-1H-imidazol-1-yl)methyl)-3-fluorophenyl)cyclopropane-1-carboxylic acid] | can significantly inhibit
14 | O=C(O)[C@H]1C[C@@H]1c1ccc(Cn2ccnc2)c(F)c1 [Compound 35, (1S,2S)-2-(4-((1H-Imidazol-1-yl)methyl)-3-fluorophenyl)cyclopropane-1-carboxylic acid] | can significantly inhibit
15 | O=C(O)[C@H]1C[C@@H]1c1ccc(Cn2cnc(F)c2)cc1F [Compound 37, (1S,2S)-2-(2-Fluoro-4-((4-fluoro-1H-imidazol-1-yl)methyl)phenyl)cyclopropane-1-carboxylic acid] | can significantly inhibit
16 | O=C(O)[C@H]1C[C@@H]1c1ccc(Cn2cnc(F)c2)c(Cl)c1 [Compound 38, (1S,2S)-2-(3-Chloro-4-((4-fluoro-1H-imidazol-1-yl)methyl)phenyl)cyclopropane-1-carboxylic acid] | can significantly inhibit
